Assay results as given in patent publication US20260193271A1, “PAN-KRAS INHIBITOR COMPOUND” (ADLAI NORTYE BIOPHARMA CO., LTD., priority 2022, published 2026).

Legend:
[1] = tested on: SW480 (G12V); assay: In vitro cell proliferation inhibition test (CellTiter-Glo), SW480; assay type: cell-based; conditions: SW480 colon cell line, KRAS (p.G12V), 72 h co-incubation
Source text: Test Example 1: In Vitro Cell Proliferation Inhibition Test
Due to the diversity of RAS mutations and in order to evaluate the activity of compounds in different RAS mutation cell lines, we selected KRAS^WT, KRAS^G12C, KRAS^G12D, KRAS^G12V and BRAF mutation cell lines (see the table below) for in vitro activity evaluation and screening of compounds.
Protocol: CellTiter-Glo® Cell Luminescent Viability Assay (Promega)
According to the doubling time of different cell lines, different numbers of cells (1000-5000 cells/well) were seeded in 96-well plates containing 180 μl of corresponding culture medium and cultured overnight in a cell culture incubator at 37° C. with 5% CO2. On the second day, the test compound was pre-diluted 3-fold with culture medium, with the highest concentration being 100 μM, for a total of 10 concentration gradients; then 20 μl of culture medium containing different concentrations of the compound was added to the cells in the 96-well plate to ensure that the final concentration of the compound was up to 10 μM, with 10 concentration gradients of 3-fold dilution. After the cells and compounds were co-incubated for 72 h, the 96-well plate was removed from the incubator and equilibrated at room temperature for 30 min. Then, 25 μl of CellTiter-Glo® Reagent was added to each well and mixed thoroughly. The mixture was incubated at room temperature for 10 min, and then 100 μl of the sample was transferred to a white 96-well plate (OptiPlate™-96, PerkinElmer). The […] signal value was read using a multi-function microplate reader (SpectraMax® i3x, Molecular devices). The signal values were then standardized, and the curve was fitted using a four-parameter regression equation to calculate the half maximal inhibitory concentration (IC50) of the compound on the cell line.

[2] = tested on: AsPC-1 (G12D); assay: In vitro cell proliferation inhibition test (CellTiter-Glo), AsPC-1; assay type: cell-based; conditions: KRAS (p.G12D), 72 h co-incubation
Outline: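 IC50 was derived by four-parameter fitting of normalized CellTiter-Glo signals. These were measured after 72 h co-incubation with compound at 10 concentrations, 3-fold serial, final maximum 10 μM. Plating was 1000-5000 cells/well, adjusted to growth rate, with overnight attachment at 37 °C, 5% CO2.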

[3] = Homo sapiens, ASPC1, AsPC-1 pancreas cell line

| IC50 ([1]; Homo sapiens) | IC50 [2, 3] | IC50 [1] | IC50 ([2]; AsPC-1 pancreas cell line) | Compound |
| --- | --- | --- | --- | --- |
| 10 nM | 6 nM | – | – | CCn1c(-c2cc(-c3ccc(CN4CCOCC4)nc3)cnc2[C@H](C)OC)c2c3cc(ccc31)-c1csc(n1)C[C@H](NC(=O)[C@H]1C[C@@H]1C)C(=O)N1CCC[C@H](N1)C(=O)OCC(C)(C)C2 (atropisomer, axis not shown) [Compound 5, (1S,2S)-N-((6^3S,4S,Z)-1^1-ethyl-1^2-(6-((S)-1-methoxyethyl)-6′-(morpholinomethyl)-[3,3′-bipyridin]-5-yl)-10,10-dimethyl-5,7-dioxo-6^1,6^2,6^3,6^4,6^5,6^6-hexahydro-1^1H-8-oxa-2(4,2)-thiazola-1(5,3)-indola-6(1,3)-pyridazinacycloundecaphane-4-yl)-2-methylcyclopropane-1-carboxamide] |
| – | – | 0.51 nM | 0.54 nM | (1r,2R,3S)-N-((63S,4S,Z)-1^1-(2,2-difluoroethyl)-1^2-(2-((S)-1-methoxyethyl)-5-(2-(morpholinomethyl)pyrimidin-5-yl)pyridin-3-yl)-10,10-dimethyl-5,7-dioxo-6^1,6^2,6^3,6^4,6^5,6^6-hexahydro-1^1H-8-oxa-2(4,2)-thiazola-1(5,3)-indola-6(1,3)-pyridazinacycloundecaphane-4-yl)-2,3-dimethylcyclopropane-1-carboxamide [Compound 48] |
| 2 nM | 1.6 nM | – | – | CCn1c(-c2cc(-c3cc(C4CN(C)C4)on3)cnc2[C@H](C)OC)c2c3cc(ccc31)-c1csc(n1)C[C@H](NC(=O)[C@H]1C[C@@H]1C)C(=O)N1CCC[C@H](N1)C(=O)OCC(C)(C)C2 (atropisomer, axis not shown) [Compound 31, (1S,2S)-N-((6^3S,4S,Z)-1^1-ethyl-1^2-(2-((S)-1-methoxyethyl)-5-(5-(1-methylazetidin-3-yl)isoxazol-3-yl)pyridin-3-yl)-10,10-dimethyl-5,7-dioxo-6^1,6^2,6^3,6^4,6^5,6^6-hexahydro-1^1H-8-oxa-2(4,2)-thiazola-1(5,3)-indola-6(1,3)-pyridazinacycloundecaphane-4-yl)-2-methylcyclopropane-1-carboxamide] |
| – | – | 11.4 nM | 5.3 nM | CCn1c(-c2cc(-c3cc(C4CCN(C)C4)on3)cnc2C(C)OC)c2c3cc(ccc31)-c1csc(n1)CC(NC(=O)C1C(C)C1C)C(=O)N1CCCC(N1)C(=O)OCC(C)(C)C2 [Compound 29′, (1r,2R,3S)-N-((6^3S,4S,Z)-1^1-ethyl-1^2-(2-((S)-1-methoxyethyl)-5-(5-((R)-1-methylpyrrolidin-3-yl)isoxazol-3-yl)pyridin-3-yl)-10,10-dimethyl-5,7-dioxo-6^1,6^2,6^3,6^4,6^5,6^6-hexahydro-1^1H-8-oxa-2(4,2)-thiazola-1(5,3)-indola-6(1,3)-pyridazinacycloundecaphane-4-yl)-2,3-dimethylcyclopropane-1-carboxamide] |
| 4.1 nM | 6.1 nM | – | – | CCn1c(-c2cc(-c3ccc(CN4CC[C@@H](F)C4)cn3)cnc2[C@H](C)OC)c2c3cc(ccc31)-c1csc(n1)C[C@H](NC(=O)[C@H]1C[C@@H]1C)C(=O)N1CCC[C@H](N1)C(=O)OCC(C)(C)C2 (atropisomer, axis not shown) [Compound 46, (1S,2S)-N-((6^3S,4S,Z)-1^1-ethyl-1^2-(5-(((R)-3-fluoropyrrolidin-1-yl)methyl)-6′-((S)-1-methoxyethyl)-[2,3′-bipyridin]-5′-yl)-10,10-dimethyl-5,7-dioxo-6^1,6^2,6^3,6^4,6^5,6^6-hexahydro-1^1H-8-oxa-2(4,2)-thiazola-1(5,3)-indola-6(1,3)-pyridazinacycloundecaphane-4-yl)-2-methylcyclopropane-1-carboxamide] |
| 10 nM | 9.2 nM | – | – | CCn1c(-c2cc(-c3ccc(=O)n(CCN4CCOCC4)c3)cnc2[C@H](C)OC)c2c3cc(ccc31)-c1csc(n1)C[C@H](NC(=O)[C@H]1C[C@@H]1C)C(=O)N1CCC[C@H](N1)C(=O)OCC(C)(C)C2 (atropisomer, axis not shown) [Compound 40, (1S,2S)-N-((6^3S,4S,Z)-1^1-ethyl-1^2-(6-((S)-1-methoxyethyl)-1′-(2-morpholinoethyl)-6′-oxo-1′,6′-dihydro-[3,3′-bipyridin]-5-yl)-10,10-dimethyl-5,7-dioxo-6^1,6^2,6^3,6^4,6^5,6^6-hexahydro-1^1H-8-oxa-2(4,2)-thiazola-1(5,3)-indola-6(1,3)-pyridazinacycloundecaphane-4-yl)-2-methylcyclopropane-1-carboxamide] |
| 3.7 nM | 2.6 nM | – | – | CCn1c(-c2cc(-c3ccc(CN4CCN(C)CC4)cn3)cnc2[C@H](C)OC)c2c3cc(ccc31)-c1csc(n1)C[C@H](NC(=O)[C@H]1C[C@@H]1C)C(=O)N1CCC[C@H](N1)C(=O)OCC(C)(C)C2 (atropisomer, axis not shown) [Compound 41, (1S,2S)-N-((6^3S,4S,Z)-1^1-ethyl-1^2-(6′-((S)-1-methoxyethyl)-5-((4-methylpiperazin-1-yl)methyl)-[2,3′-bipyridin]-5′-yl)-10,10-dimethyl-5,7-dioxo-6^1,6^2,6^3,6^4,6^5,6^6-hexahydro-1^1H-8-oxa-2(4,2)-thiazola-1(5,3)-indola-6(1,3)-pyridazinacycloundecaphane-4-yl)-2-methylcyclopropane-1-carboxamide] |
| – | – | 3610 nM | > 10000 nM | CCn1c(-c2cc(-c3cc(C4CCCN4C)on3)cnc2C(C)OC)c2c3cc(ccc31)-c1csc(n1)CC(NC(=O)C1CC1C)C(=O)N1CCCC(N1)C(=O)OCC(C)(C)C2 [Compound 24′, (1S,2S)-N-((6^3S,4S,Z)-1^1-ethyl-1^2-(2-((S)-1-methoxyethyl)-5-(5-((R)-1-methylpyrrolidin-2-yl)isoxazol-3-yl)pyridin-3-yl)-10,10-dimethyl-5,7-dioxo-6^1,6^2,6^3,6^4,6^5,6^6-hexahydro-1^1H-8-oxa-2(4,2)-thiazola-1(5,3)-indola-6(1,3)-pyridazinacycloundecaphane-4-yl)-2-methylcyclopropane-1-carboxamide] |
| – | – | 633 nM | 1180 nM | (1S,2S)-N-((6^3S,4S,Z)-1^1-ethyl-1^2-(2-((S)-1-methoxyethyl)-5-(5-(morpholinomethyl)pyrimidin-2-yl)pyridin-3-yl)-10,10-dimethyl-5,7-dioxo-6^1,6^2,6^3,6^4,6^5,6^6-hexahydro-1^1H-8-oxa-2(4,2)-thiazola-1(5,3)-indola-6(1,3)-pyridazinacycloundecaphane-4-yl)-2-methylcyclopropane-1-carboxamide [Compound 14′] |
| 670 nM | 21 nM | – | – | CCn1c(-c2cc(-c3ccc4c(c3)CN(C)C4)cnc2[C@H](C)OC)c2c3cc(ccc31)-c1csc(n1)C[C@H](NC(=O)[C@H]1C[C@@H]1C)C(=O)N1CCC[C@H](N1)C(=O)OCC(C)(C)C2 (atropisomer, axis not shown) [Compound 2, (1S,2S)-N-((6^3S,4S,Z)-1^1-ethyl-1^2-(2-((S)-1-methoxyethyl)-5-(2-methylisoindolin-5-yl)pyridin-3-yl)-10,10-dimethyl-5,7-dioxo-6^1,6^2,6^3,6^4,6^5,6^6-hexahydro-1^1H-8-oxa-2(4,2)-thiazola-1(5,3)-indola-6(1,3)-pyridazinacycloundecaphane-4-yl)-2-methylcyclopropane-1-carboxamide] |
| 159 nM | 128 nM | – | – | CCn1c(-c2cc(-c3ccc(CN4CCC(F)(F)CC4)cc3)cnc2[C@H](C)OC)c2c3cc(ccc31)-c1csc(n1)C[C@H](NC(=O)[C@H]1C[C@@H]1C)C(=O)N1CCC[C@H](N1)C(=O)OCC(C)(C)C2 (atropisomer, axis not shown) [Compound 7, (1S,2S)-N-((6^3S,4S,Z)-1^2-(5-(4-((4,4-difluoropiperidin-1-yl)methyl)phenyl)-2-((S)-1-methoxyethyl)pyridin-3-yl)-1^1-ethyl-10,10-dimethyl-5,7-dioxo-6^1,6^2,6^3,6^4,6^5,6^6-hexahydro-1^1H-8-oxa-2(4,2)-thiazola-1(5,3)-indola-6(1,3)-pyridazinacycloundecaphane-4-yl)-2-methylcyclopropane-1-carboxamide] |
| – | – | 16 nM | 33 nM | (1r,2R,3S)-N-((6^3S,4S,Z)-1^1-ethyl-1^2-(2-((S)-1-methoxyethyl)-5-(1-(2-(4-methylpiperazin-1-yl)ethyl)-1H-pyrazol-4-yl)pyridin-3-yl)-10,10-dimethyl-5,7-dioxo-6^1,6^2,6^3,6^4,6^5,6^6-hexahydro-1^1H-8-oxa-2(4,2)-thiazola-1(5,3)-indola-6(1,3)-pyridazinacycloundecaphane-4-yl)-2,3-dimethylcyclopropane-1-carboxamide [Compound 19′] |
